Patent US20250288575A1, “EYE DROP COMPOSITION FOR PREVENTION OR TREATMENT OF OPHTHALMIC DISEASES AND PREPARATION METHOD THEREFOR” (OCUMENSION THERAPEUTICS (SUZHOU) CO., LTD., priority 2021, published 2025)

Experiment: Antimicrobial efficacy testing (AET) of atropine sulfate eye drops (0.01%) with different BAK concentrations
Description: The concentration of benzalkonium chloride (BAK) in atropine sulfate eye drops was verified via antimicrobial efficacy testing (AET). The lyophilized preparation was reconstituted with 8 mL of reconstituted diluent including BAK at concentrations of 100 ppm, 80 ppm, 50 ppm, 25 ppm, or 0 ppm to obtain atropine sulfate eye drops (0.01%) including benzalkonium chloride at different concentrations.

[1] = BAK 0 ppm in atropine sulfate eye drops (0.01%)
[2] = BAK 25 ppm in atropine sulfate eye drops (0.01%)
[3] = BAK 50 ppm in atropine sulfate eye drops (0.01%)
[4] = BAK 80 ppm in atropine sulfate eye drops (0.01%)
[5] = BAK 100 ppm in atropine sulfate eye drops (0.01%)

## benzalkonium chloride [BAK]
[1]
  AET, Chinese Pharmacopoeia Method, Criteria A&B: Fail
  AET, European Pharmacopoeia Method, Criteria A&B: Fail
  AET, United States Pharmacopeia Method: Fail
[2]
  AET, Chinese Pharmacopoeia Method, Criteria A&B: Pass
  AET, European Pharmacopoeia Method, Criteria A&B: Pass
  AET, United States Pharmacopeia Method: Pass
[3]
  AET, Chinese Pharmacopoeia Method, Criteria A&B: Pass
  AET, European Pharmacopoeia Method, Criteria A&B: Pass
  AET, United States Pharmacopeia Method: Pass
[4]
  AET, Chinese Pharmacopoeia Method, Criteria A&B: Pass
  AET, European Pharmacopoeia Method, Criteria A&B: Pass
  AET, United States Pharmacopeia Method: Pass
[5]
  AET, Chinese Pharmacopoeia Method, Criteria A&B: Pass
  AET, European Pharmacopoeia Method, Criteria A&B: Pass
  AET, United States Pharmacopeia Method: Pass
All tested BAK concentrations (100, 80, 50, 25 ppm) except 0 ppm
  results of the antibacterial efficacy testing: met the criteria
Benzalkonium chloride concentration greater than 70 ppm
  antibacterial efficacy criteria "A", Chinese Pharmacopoeia, during long-term storage: criteria requirements of antibacterial efficacy “A” were met
